Common to all, as to assay type: cell-based
For one experiment, the target named is hGABAA α2β3γ2 (Homo sapiens, UniProt P18507+P28472+P47869). The experiment is described as follows: hGABAA IonFlux HT PAM Assay, α2β3γ2. The conditions noted are these: for Mean Maximal Effect (% of Control): normalized to baseline peak current induced by EC20 GABA (0.8 μM) for 2 seconds. An excerpt:
(§1) Ligand-gated ion channels targeted were hGABAA α1β3γ2 and hGABAA α2β3γ2.
(§2) Electrophysiological assays conducted to profile nine (9) compounds for activities on the on channel targets listed above for Positive Allosteric Modulator (PAM) activities using the IonFlux HT electrophysiological platform.
The parameters measured are described in the Data Analysis section. […] Open circles represent data that has been excluded from the curve fitting. Where no curve fit was possible, n/c (not calculable) is listed.
(§3) All wells included a final DMSO concentration of 0.33% including all control wells.
(§4) All recordings were obtained from a holding potential of −60 mV. The compound addition sequence that was used for all additions was the same for all assays. […] The process was repeated with the next ascending concentration of test compound (FIG. 1).
(§5) All data were first exported to an Excel compatible data file and then analyzed using Graph Pad Prism software.

Experiment [1] addresses T1, hGABAA α1β3γ2 (Homo sapiens, UniProt P14867+P18507+P28472). As to the kind of experiment: hGABAA α1β3γ2 IonFlux HT Agonist Assay. Further details: activation of hGABAA α1β3γ2 ion channel currents / activation: dose or concentration left out as unconfirmed. Here is the method: Ligand-gated ion channel targets were hGABAA α2β3γ2 and hGABAA α1β3γ2. Electrophysiological assays conducted to profile two compounds for agonist activities on hGABAA α2β3γ2 and seven compounds for agonist activities on hGABAA α1β3γ2 using the IonFlux HT electrophysiological platform.
The parameters measured are described in the Data Analysis section. […] Note: The test compounds was applied over two (2) ‘experimental patterns’ in increasing concentrations.
The supplied compound was prepared in DMSO to concentrations that were 300× the final assay concentrations. Aliquots were taken out and diluted 300× into external buffer to give the final assay concentration. At wells included a final DMSO concentration of 0.33% including all control wets.
All recordings were obtained from a holding potential of −60 mV. The compound addition sequence that was used for all additions was the same for all assays. […] Each test concentration of compound was applied for 2 seconds followed by 60 seconds wash. The process was repeated with the next ascending concentration of test compound. The test compounds were applied over two (2) ‘experimental patterns’ in increasing concentrations (FIG. 11).
AM data were first exported to an Excel compatible data file and then analyzed using Graph Pad Prism software.

The target of experiment [2] is T1, hGABAA α1β3γ2. The experiment is described as follows: hGABAA IonFlux HT PAM Assay, α1β3γ2. Particulars: for Mean Maximal Effect (% of Control): normalized to baseline peak current induced by EC20 GABA (1 μM) for 2 seconds.
From the text: as §1, §2
The parameters measured are described in the Data Analysis section.
as §3, §4, §5

Where [3] appears, read: Estimated EC50, positive modulation of EC20 GABA current.
[4] abbreviates: read-out: Normalized Percentage Activation Mean.
Setting [5] is: agonist activation of channel currents, read-out: Estimated EC50.
Setting [6] is: positive modulation of EC20 GABA current.

Where two headings read alike, the source gives them in different places. Where only a bound is given, the exact number is not on record here.

T1 sequence (P14867 28-456): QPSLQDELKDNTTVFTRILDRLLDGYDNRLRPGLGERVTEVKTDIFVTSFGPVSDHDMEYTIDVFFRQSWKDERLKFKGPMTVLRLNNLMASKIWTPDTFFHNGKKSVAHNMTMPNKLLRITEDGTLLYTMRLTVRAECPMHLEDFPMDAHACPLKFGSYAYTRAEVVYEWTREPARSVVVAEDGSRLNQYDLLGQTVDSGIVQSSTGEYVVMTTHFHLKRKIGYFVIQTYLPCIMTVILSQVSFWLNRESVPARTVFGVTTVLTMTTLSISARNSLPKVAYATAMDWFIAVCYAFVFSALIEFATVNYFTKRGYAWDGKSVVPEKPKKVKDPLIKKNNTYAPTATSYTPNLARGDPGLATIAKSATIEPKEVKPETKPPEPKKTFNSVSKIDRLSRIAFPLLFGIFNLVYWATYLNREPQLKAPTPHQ
T1 sequence (P28472 26-473): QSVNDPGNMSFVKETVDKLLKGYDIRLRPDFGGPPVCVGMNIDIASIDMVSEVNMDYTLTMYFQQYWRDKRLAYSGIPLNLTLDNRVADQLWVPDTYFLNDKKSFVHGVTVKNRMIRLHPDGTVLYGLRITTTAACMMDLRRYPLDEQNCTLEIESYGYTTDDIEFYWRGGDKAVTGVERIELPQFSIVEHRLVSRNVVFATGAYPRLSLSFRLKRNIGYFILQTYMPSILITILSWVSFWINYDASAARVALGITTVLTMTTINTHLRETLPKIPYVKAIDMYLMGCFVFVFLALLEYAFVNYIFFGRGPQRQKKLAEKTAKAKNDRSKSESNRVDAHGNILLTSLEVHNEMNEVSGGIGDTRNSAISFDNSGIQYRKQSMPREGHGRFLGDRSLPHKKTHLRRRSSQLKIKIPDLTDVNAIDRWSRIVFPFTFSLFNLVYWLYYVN
T1 sequence (P18507 40-475): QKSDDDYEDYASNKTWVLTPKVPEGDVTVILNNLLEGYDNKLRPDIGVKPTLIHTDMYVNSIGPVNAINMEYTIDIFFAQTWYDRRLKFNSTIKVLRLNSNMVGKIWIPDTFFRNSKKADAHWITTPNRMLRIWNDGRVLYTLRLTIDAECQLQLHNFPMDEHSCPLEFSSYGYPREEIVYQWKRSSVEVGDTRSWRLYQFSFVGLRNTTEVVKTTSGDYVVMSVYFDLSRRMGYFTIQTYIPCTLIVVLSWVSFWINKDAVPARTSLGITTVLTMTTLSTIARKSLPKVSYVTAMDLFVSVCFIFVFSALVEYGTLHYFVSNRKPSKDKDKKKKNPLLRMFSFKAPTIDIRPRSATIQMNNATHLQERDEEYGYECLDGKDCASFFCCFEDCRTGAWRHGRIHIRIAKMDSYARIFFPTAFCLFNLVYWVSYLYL
hGABAA α2β3γ2, sequence (P47869 29-451): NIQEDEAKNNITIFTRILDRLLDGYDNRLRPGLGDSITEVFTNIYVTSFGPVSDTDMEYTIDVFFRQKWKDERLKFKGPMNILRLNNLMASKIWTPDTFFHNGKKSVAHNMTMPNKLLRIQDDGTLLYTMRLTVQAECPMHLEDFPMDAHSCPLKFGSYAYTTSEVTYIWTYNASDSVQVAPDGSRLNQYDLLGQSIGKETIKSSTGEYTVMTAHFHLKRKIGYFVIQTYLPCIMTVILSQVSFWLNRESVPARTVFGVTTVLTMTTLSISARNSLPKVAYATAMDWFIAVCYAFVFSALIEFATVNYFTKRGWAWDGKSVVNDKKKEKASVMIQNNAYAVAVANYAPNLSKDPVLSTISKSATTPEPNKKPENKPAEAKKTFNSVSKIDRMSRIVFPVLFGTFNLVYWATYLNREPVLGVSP
hGABAA α2β3γ2, sequence (P28472 26-473): as the sequence (P28472 26-473) above
hGABAA α2β3γ2, sequence (P18507 40-475): as the sequence (P18507 40-475) above

As for `CCN(CCN(C)C)C(=O)OC1c2nccnc2C(=O)N1c1ccc(Cl)cn1` (stereo not drawn) [Compound 4], the EC50 at hGABAA α2β3γ2 (setting [3]) is 5.8 µM. Besides, at hGABAA α2β3γ2, the “Mean Maximal Effect (% of Control)” value is on record as 126 % of Control. On hGABAA α1β3γ2 [1], the EC50 was over 1000 µM and the “activation of hGABAA α1β3γ2 ion channel currents” value was “did not activate”. At hGABAA α1β3γ2 [1] (setting [4]), the activation was determined as 4.45%, the activation at 0.3 µM worked out at 5.26%, the activation at 1 µM was 5.13% and the activation at 3 µM came out at 5.89%. In addition, at hGABAA α1β3γ2 [1] (setting [4]), the activation at 10 µM was found to be 5.68%, the activation at 30 µM came to 6.45%, the activation at 100 µM was determined as 5.97% and the activation at 300 µM was 5.85%. The EC50 on hGABAA α1β3γ2 [2] (setting [3]) was 2.47 µM. In addition, the “Mean Maximal Effect (% of Control)” value at hGABAA α1β3γ2 [2] is 170 % of Control.
`CCN(CCNC)C(=O)CC1c2nccnc2C(=O)N1c1ccc(Cl)cn1` (stereo not drawn) [Compound 5]: the “Mean Maximal Effect (% of Control)” value on hGABAA α2β3γ2 is reported as 126 % of Control. Further, the EC50 at hGABAA α2β3γ2 (read-out: Estimated EC50) is 8.7 µM. The “activation of hGABAA α1β3γ2 ion channel currents” value on hGABAA α1β3γ2 [1] is “did not activate”. Also, the EC50 on hGABAA α1β3γ2 [1] (setting [5]) is over 1000 µM. Besides, on hGABAA α1β3γ2 [1] (setting [4]), the activation at 0.3 µM turned out to be 2.54%, the activation at 1 µM turned out to be 2.02%, the activation at 3 µM was found to be 2.28% and the activation at 10 µM was 2.45%. Besides, at hGABAA α1β3γ2 [1] (setting [4]), the activation at 30 µM was determined as 3.08%, the activation at 100 µM is 3.75%, the activation at 300 µM was 2.7% and the activation at 10000 µM was found to be 2.38%. In addition, the “Mean Maximal Effect (% of Control)” value on hGABAA α1β3γ2 [2] is given as 136 % of Control. The EC50 at hGABAA α1β3γ2 [2] (read-out: Estimated EC50) is 3.16 µM.
For `CCCN(CCNC)C(=O)Cc1c(-c2ccc(C)cc2)nc2ccc(C)cn12` [Compound 2], on hGABAA α2β3γ2, the “Mean Maximal Effect (% of Control)” value is 248 % of Control. For the same molecule, on hGABAA α2β3γ2 (read-out: Estimated EC50), the EC50 was 2 µM. Moreover, the “activation of hGABAA α1β3γ2 ion channel currents” value at hGABAA α1β3γ2 [1] is given as “did not activate”. Besides, the concentration for a half-maximal effect (EC50) on hGABAA α1β3γ2 [1] (setting [5]) was over 1000 µM. For the same molecule, on hGABAA α1β3γ2 [1] (setting [4]), the activation was 3.48%, the activation at 0.3 µM worked out at 2.17%, the activation at 1 µM is 1.99% and the activation at 3 µM came out at 2.79%. In addition, on hGABAA α1β3γ2 [1] (setting [4]), the activation at 10 µM came to 5.37%, the activation at 30 µM turned out to be 5.93%, the activation at 100 µM is 7.1% and the activation at 300 µM was found to be 3.63%. Further, the “Mean Maximal Effect (% of Control)” value on hGABAA α1β3γ2 [2] was 354 % of Control. For the same molecule, the EC50 on hGABAA α1β3γ2 [2] (read-out: Estimated EC50) is 0.446 µM.
Take `CNCCN(C)C(=O)Cc1c(-c2ccc(C)cc2)nc2ccc(C)cn12` [Compound 1]: the “Mean Maximal Effect (% of Control)” value at hGABAA α2β3γ2 was 181 % of Control. Moreover, the EC50 on hGABAA α2β3γ2 (read-out: Estimated EC50) was 3 µM. Moreover, the “activation of hGABAA α1β3γ2 ion channel currents” value at hGABAA α1β3γ2 [1] is on record as “did not activate”. Further, the EC50 on hGABAA α1β3γ2 [1] (setting [5]) was over 1000 µM. For the same molecule, at hGABAA α1β3γ2 [1] (setting [4]), the activation stood at 4.98%, the activation at 0.3 µM worked out at 1.64%, the activation at 1 µM was determined as 1.39% and the activation at 3 µM is 2.34%. Besides, on hGABAA α1β3γ2 [1] (setting [4]), the activation at 10 µM amounted to 6.52%, the activation at 30 µM amounted to 4.78%, the activation at 100 µM worked out at 6.97% and the activation at 300 µM is 7.15%. At hGABAA α1β3γ2 [2], the “Mean Maximal Effect (% of Control)” value is given as 282 % of Control. Besides, the EC50 on hGABAA α1β3γ2 [2] (read-out: Estimated EC50) is 0.654 µM.
With `CN(C)CCN(C)C(=O)CC1c2nccnc2C(=O)N1c1ccc(Cl)cn1` (stereo not drawn) [Compound 6], the “Mean Maximal Effect (% of Control)” value at hGABAA α2β3γ2 was 122 % of Control. In addition, the “Estimated EC50” value at hGABAA α2β3γ2 (setting [6]) was “n/c”. Also, the “activation of hGABAA α1β3γ2 ion channel currents” value on hGABAA α1β3γ2 [1] is “did not activate”. The EC50 on hGABAA α1β3γ2 [1] (setting [5]) was over 1000 µM. In addition, on hGABAA α1β3γ2 [1] (setting [4]), the activation was determined as 2.08%, the activation at 0.3 µM is 1.59%, the activation at 1 µM was 2.06% and the activation at 3 µM was 1.9%. On hGABAA α1β3γ2 [1] (setting [4]), the activation at 10 µM is 1.89%, the activation at 30 µM is 1.74%, the activation at 100 µM came out at 1.95% and the activation at 300 µM was 2.19%. In addition, the “Mean Maximal Effect (% of Control)” value at hGABAA α1β3γ2 [2] is 130 % of Control. For the same molecule, the “Estimated EC50” value on hGABAA α1β3γ2 [2] (setting [6]) is “n/c”.
For the molecule `CCCN(CCNC)C(=O)Cc1c(-c2ccc(Cl)cc2)nc2ccc(Cl)cn12` [Compound 3], the “Mean Maximal Effect (% of Control)” value on hGABAA α2β3γ2 is on record as 240 % of Control. The EC50 at hGABAA α2β3γ2 (positive modulation of EC20 GABA current, read-out: Estimated EC50) is 1.1 µM. Also, at hGABAA α1β3γ2 [1], the EC50 was over 1000 µM and the “activation of hGABAA α1β3γ2 ion channel currents” value is given as “did not activate”. Besides, on hGABAA α1β3γ2 [1] (setting [4]), the activation turned out to be 3.53%, the activation at 0.3 µM was found to be 1.99%, the activation at 1 µM turned out to be 1.9% and the activation at 3 µM was 2.32%. Also, at hGABAA α1β3γ2 [1] (setting [4]), the activation at 10 µM is 6.3%, the activation at 30 µM amounted to 2.98%, the activation at 100 µM came out at 3.63% and the activation at 300 µM was determined as 8.78%. In addition, on hGABAA α1β3γ2 [2] (setting [3]), the EC50 is 0.081 µM. Besides, at hGABAA α1β3γ2 [2], the “Mean Maximal Effect (% of Control)” value was 331 % of Control.

These data come from patent US12084451B2, “Compositions and methods for reducing tactile dysfunction, anxiety, and social impairment” (President and Fellows of Harvard College, priority 2018, dated 2024).
